From patent US20140234252A1, “Composition and Methods for the Treatment of Degenerative Retinal Conditions” (The Provost, Fellows, Foundation Scholars, and the other …, priority 2011, published 2014)
Residues, ends and D or L forms follow the SMILES beside them. *: point of attachment. Cbz = O=C(OCc1ccccc1)*; CH2F = FC*

Columns and labels:
[1] = tested on: human PBMC; experiment: Cytokine ELISA in LPS-primed, C1Q-activated human PBMC with inhibitors; assay type: cell-based; conditions: PBMC primed with LPS overnight, 5 μg/ml C1Q 6 h, inhibitor added 1 h before C1Q
Description: (§1) FIG. 3: Complement factor C1Q, a component of Drusen, activates the NLRP3 inflammasome: (a) Production of IL-1β (left panel) and TNFα (right panel) in BMDMs primed with CEP for 3 h and activated for 6 h with C1q at increasing doses. (b) Western blot of caspase-1 cleavage products in THP1 cells primed with LPS and treated with increasing doses of C1Q. (c) Live cell imaging of immortalised BL6 BMDMs stably expressing YFP-ASC. Cells were primed for 3 hrs with either LPS (top panel) or CEP-HSA followed by treatment with 10 μg C1Q (right panel) for a further 2 hrs. Oligomerisation of ASC-YFP was observed by speck formation, original magnification ×60. (d) IL-1β (left panel) and TNF-α (right panel) production in WT and Nlrp3^-/- BMDCs primed with LPS (3 h) and activated with C1Q (16 h) at increasing doses (2.5, 5 and 10 μg C1Q). (e) IL-1β, IL-18 and IL-6 production in human PBMC primed with […] LPS overnight and activated with 5 μg ml C1Q for 6 h, with the addition, 1 h before C1Q treatment of increasing doses (10 fold) of ZVAD (caspase-1 inhibitor). All ELISA data are representative of a minimum of 3 separate experiments carried out in triplicate.
FIG. 13: IL-1β, IL-18 and IL-6 production in human PBMC primed with 100 ng/ml LPS overnight and activated with 5 μg/ml C1Q for 6 h, with the addition, 1 h before C1Q treatment of increasing doses (10 fold) of (a) DPI (ROS inhibitor), (b) Bafilomycin (inhibits lysosomal acidification), (c) CA-074 Me (cathepsin B inhibitor).
(§2) ELISA's were used to quantify cytokines in supernatants from the various experimental groups used throughout this study. IL-1β (RnD Systems), IL-18 (MBL International), IL-6 (RnD Systems), TNF-α (RnD Systems) and VEGF (RnD Systems) were analyzed throughout. All ELISA's were conducted a minimum of 3 times in triplicate. Inhibitors used during this study were added at the following highest concentrations 1 h prior to inflammasome activation: 1 μg/ml of caspase-1 inhibitor VI (Calbiochem), 5 μM cytochalasin D (Sigma Aldrich, Ireland), 10 μM CA-074 Me (cathepsin B inhibitor) (Sigma Aldrich, Ireland), 10 μM DPI (Sigma Aldrich, Ireland).
(§3) ARPE-19 cell line (ATCC CRL 2302) were obtained from LGC promochem, THP1 cells and primary isolated human peripheral blood mononuclear […] (PBMCs) were used for in vitro inflammasome activation assays. Cells were cultured at 37° C., 5% CO2, 95% air in a 1:1 mixture of Dulbecco's modified Eagle's medium (DMEM) and Ham's F12 medium with 1.2 g/L sodium bicarbonate, 2.5 mM L-glutamine, 15 mM HEPES, 0.5 mM sodium pyruvate (Sigma Aldrich) with 10% foetal calf serum (FCS). BMDCs and BMDMs were also isolated from WT, NLRP3-/-, TLR-2-/-, C3H/HeN and C3H/HeJ mice on a congenic C57/B16 background. BMDCs and BMDMs were stained with anti-CD11c-APC and anti-CD11b-PeCy7. Cells were gated on live single cells and expression of CD11c and CD11b was assesed by flow cytometry (FIG. 19). Mouse bEnd.3 microvascular endothelial cells were grown on fibronectin (Sigma Aldrich Ireland) coated tissue culture flasks in DMEM containing Glutamax and 10% FCS.

[2] = Zeta potential measurement of C1Q in solution; assay type: physicochemical
[3] = tested on: BMDMs; experiment: Cytokine ELISA in BMDMs activated with C1Q; assay type: cell-based, mouse
Description: as §1, §2
(§4) ARPE-19 cell line (ATCC CRL 2302) were obtained from LGC promochem, THP1 cells and primary isolated human peripheral blood mononuclear […] (PBMCs) were used for in vitro inflammasome activation assays. […]

[4] = tested on: THP1 cells; experiment: Western blot of caspase-1 cleavage products in THP1 cells; assay type: cell-based, human; conditions: THP1 cell lysates
Description: Generally, antibodies specific for caspase-1 (Santa-Cruz Biotech), beta-actin (Abcam), NLRP3 (Sigma Aldrich, Ireland), TLR-4 (Santa-Cruz Biotech) were incubated on membranes overnight at 4° C. Membranes were washed with TBS, and incubated with a secondary antibody against rabbit (IgG) with Horse-Radish-Peroxidase (HRP) conjugates (1:2500) (Sigma-Aldrich, Ireland), or mouse (IgG) (1:1000), (Sigma-Aldrich, Ireland), for 3 hours at room temperature. Immune complexes were detected using enhanced chemiluminescence (ECL). All Western blots were repeated a minimum of 3 times.
as §3, with “Mouse bEnd.3 microvascular endothelial cells were grown on fibronectin (Sigma Aldrich Ireland) coated tissue culture flasks in DMEM containing Glutamax and 10% FCS.” left out

[5] = tested on: BMDMs expressing YFP-ASC; experiment: ASC speck formation in immortalised BMDMs expressing YFP-ASC; assay type: cell-based, mouse; conditions: primed BMDMs, live cell imaging
Description: Live cell imaging of speck formation was undertaken using a temperature and CO2 regulated confocal laser scanning microscopy (Olympus FluoView TM FV1000).

[6] = tested on: BMDCs; experiment: Cytokine ELISA in WT and Nlrp3-/- BMDCs primed with LPS and activated with C1Q; assay type: cell-based, mouse; conditions: for production of IL-1β: LPS 3 h, C1Q 16 h
Description: as §1, §2, §4

[7] = tested on: ARPE-19 cells; experiment: VEGF ELISA in ARPE-19 cells treated with recombinant IL-18; assay type: cell-based; conditions: increasing doses of IL-18, 24 hrs, growth medium
Description: as §2
(§5) ARPE-19 cell line (ATCC CRL 2302) were obtained from LGC promochem, THP1 cells and primary isolated human peripheral blood mononuclear […] (PBMCs) were used for in vitro inflammasome activation assays. Cells were cultured at 37° C., 5% CO2, 95% air in a 1:1 mixture of Dulbecco's modified Eagle's medium (DMEM) and Ham's F12 medium with 1.2 g/L sodium bicarbonate, 2.5 mM L-glutamine, 15 mM HEPES, 0.5 mM sodium pyruvate (Sigma Aldrich) with 10% foetal calf serum (FCS). […]
(§6) We reasoned that IL-18 might confer its protection via the regulation of VEGF synthesis. To test this hypothesis we treated ARPE19 cells and a mouse brain microvascular endothelial cell line (bEnd.3) with recombinant IL-18 and subsequently analysed VEGF levels in the growth medium. […]

[8] = tested on: mouse brain microvascular endothelial cell line (bEnd.3); experiment: VEGF ELISA in bEnd.3 cells treated with recombinant IL-18; assay type: cell-based; conditions: increasing doses of IL-18, 24 hrs, growth medium
Description: as §2, §5, §6

[9] = tested on: intraocular neovascularization in C57BL/6 mice; conditions: administered to C57BL/6 mice during development of oxygen induced retinopathy; cited from earlier work
[10] = tested on: wet AMD; conditions: human, in vivo; cited from earlier work

CCCNC(=O)[C@H]1O[C@@H]1C(=O)N[C@H](C(=O)N1CCC[C@H]1C(=O)OC)[C@@H](C)CC [CA-074 Me]
C1Q induced IL-1β production [1]: restricted
C1Q induced IL-18 production [1]: restricted
IL-6 production [1]: no effect

c1ccc2c(c1)[I+]c1ccccc1-2 [DPI]
C1Q induced IL-1β production [1]: no effect

CC(NC(=O)C(NC(=O)OCc1ccccc1)C(C)C)C(=O)NC(CC(=O)O)C(=O)CF (stereo not drawn) [ZVAD] (Cbz-Val-Ala-Asp-CH2F; configuration not given here)
C1Q induced IL-1β production [1]: decreased
C1Q induced IL-18 production [1]: decreased

CO/C1=C\C(C)=C\[C@@H](C)[C@@H](O)[C@@H](C)C/C(C)=C/C=C/[C@H](OC)[C@@H]([C@@H](C)[C@@H](O)[C@H](C)[C@@]2(O)C[C@@H](O)[C@H](C)[C@@H](C(C)C)O2)OC1=O [bafilomycin A]
C1Q induced IL-1β production [1]: restricted
C1Q induced IL-18 production [1]: restricted
IL-6 production [1]: no effect

C1Q: complement factor, primary initiating component of the classical complement pathway; drusen component, isolated from human blood
zeta average (zeta potential) [2]: 11.8 mV
production of IL-1β ([3]; BMDMs primed with CEP-HSA 3 h, C1Q 6 h): produced significant levels of IL-1β
secretion of TNFα ([3]; BMDMs primed with CEP-HSA, C1Q added): remained unchanged
production of IL-1β ([3]; C1Q alone, unprimed BMDMs): did not cause the production of IL-1β
cleaved caspase-1 p10 [4]: observed cleaved caspase-1 p10
ASC oligomerisation (YFP-ASC speck formation) [5]: could cause ASC oligomerisation
production of IL-1β ([6]; Nlrp3-/- cells): failed to produce IL-1β
production of IL-1β ([6]; WT BMDCs): did produce a significant level of IL-1β
levels of TNFα ([6]; WT and Nlrp3-/- BMDCs, LPS primed, C1Q): remained unchanged

IL-18: 18KDa mature IL-18; protein sequence NCBI Accession no. NP—001553.1; also covers recombinant IL-18
levels of VEGF secreted [7]: significantly decreased
levels of VEGF secreted [8]: significantly decreased
neovascularization [9]: no inhibition of neovascularization

Infliximab: marketed drug tested in clinical trials in wet AMD
subjects in whom symptoms were greatly exacerbated [10]: more than 50%
